What is called IC50 is the concentration that gives 50% inhibition. Higher therefore signals weaker potency. The Tmax is the time at which the peak concentration occurs. In general, CL/F refers to the apparent clearance, not corrected for the fraction that reaches the circulation. Usually bioavailability stands for the share of a dose that reaches the circulation, judged against a reference dose that is usually intravenous. High values mean much systemic uptake, low ones little systemic uptake.

Activity calls are given as the source filed them. No cut-off for these calls is given here.

From ChEMBL document CHEMBL4385604, “Identification of Pyrrolo[2,3- d]pyrimidine-Based Derivatives as Potent and Orally Effective Fms-like Tyrosine Receptor Kinase 3 (FLT3) Inhibitors for Treating Acute Myelogenous Leukemia” (J Med Chem, 2019) come the findings set out here.

For data set [1], the target named is T1, Receptor-type tyrosine-protein kinase FLT3 (Homo sapiens, UniProt P36888).
T1 sequence (P36888 whole entry): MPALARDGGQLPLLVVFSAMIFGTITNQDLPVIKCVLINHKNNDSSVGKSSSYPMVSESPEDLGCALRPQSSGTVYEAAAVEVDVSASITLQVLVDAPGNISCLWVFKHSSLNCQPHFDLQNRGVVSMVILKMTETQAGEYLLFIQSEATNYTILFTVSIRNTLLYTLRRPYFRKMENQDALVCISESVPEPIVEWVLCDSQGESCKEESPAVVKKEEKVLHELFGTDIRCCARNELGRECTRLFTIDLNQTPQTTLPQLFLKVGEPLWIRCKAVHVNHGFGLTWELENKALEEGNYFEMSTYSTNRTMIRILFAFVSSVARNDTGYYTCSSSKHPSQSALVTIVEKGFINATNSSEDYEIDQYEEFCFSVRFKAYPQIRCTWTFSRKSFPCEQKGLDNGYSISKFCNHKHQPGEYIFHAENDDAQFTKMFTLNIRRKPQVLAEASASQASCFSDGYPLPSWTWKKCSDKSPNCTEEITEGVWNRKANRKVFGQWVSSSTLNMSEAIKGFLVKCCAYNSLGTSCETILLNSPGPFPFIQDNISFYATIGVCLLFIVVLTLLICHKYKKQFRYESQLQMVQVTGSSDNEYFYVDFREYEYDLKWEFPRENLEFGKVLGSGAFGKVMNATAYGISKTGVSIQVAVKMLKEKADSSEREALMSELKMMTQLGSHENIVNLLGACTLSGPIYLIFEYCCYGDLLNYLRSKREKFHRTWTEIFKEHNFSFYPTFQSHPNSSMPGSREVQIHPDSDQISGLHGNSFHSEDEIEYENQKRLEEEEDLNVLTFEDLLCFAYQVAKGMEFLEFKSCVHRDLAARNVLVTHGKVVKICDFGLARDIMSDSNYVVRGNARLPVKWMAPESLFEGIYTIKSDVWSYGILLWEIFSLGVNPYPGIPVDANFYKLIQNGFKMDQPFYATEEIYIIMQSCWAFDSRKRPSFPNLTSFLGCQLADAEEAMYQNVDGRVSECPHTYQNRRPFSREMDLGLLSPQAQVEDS

The next data set deals with RS4-11. Kind of data set: Antiproliferative activity against human RS4:11 cells harboring wild-type FLT3 measured after 72 hrs by MTT assay. The format is functional, cell-based. The note with it: RS4-11, 72 h. Background: Tetrazolium dyes change colour on reduction, which living cells bring about.
Another data set has as its system HL-60. Kind of data set: Antiproliferative activity against human HL60 cells harboring wild-type FLT3 measured after 72 hrs by MTT assay. The settings on record: HL-60, 72 h. Type of data set: functional, cell-based.
For data set [2], the system named is MV4-11. Briefly: Antitumour activity against human MV4-11 cells xenografted in NOD/SCID mouse assessed as tumour growth inhibition. Type of data set: functional, cell-based. On the technique in general: In xenograft studies the graft and the host belong to different species.
For data set [3], the system named is MOLM-13. Briefly: Antitumour activity against human MOLM13 cells xenografted in NOD/SCID mouse assessed as tumour growth inhibition. Type of data set: functional, cell-based.
The test system of data set [4] is MV4-11. Kind of data set: cells. The note with it: Homo sapiens, MV4-11, 72 h.
Description: Antiproliferative activity against human MV4-11 cells harboring FLT3-ITD mutant measured after 72 hrs by MTT assay
Data set [5] has as its system MOLM-13. Briefly: cells. The note with it: Homo sapiens, MOLM-13, 72 h.
Description: Antiproliferative activity against human MOLM13 cells harboring FLT3-ITD mutant measured after 72 hrs by MTT assay
The subject of data set [6] is BaF3. Kind of data set: cells. The settings on record: Mus musculus, BaF3, 72 h.
Description: Antiproliferative activity against mouse BAF3 cells harboring FLT3-ITD mutant measured after 72 hrs by MTT assay
Data set [7] deals with BaF3. Briefly: cells. The note with it: Mus musculus, BaF3, 72 h. This is another data set of the same source.
Description: Antiproliferative activity against mouse BAF3 cells harboring FLT3-ITD-F691L mutant measured after 72 hrs by MTT assay
For data set [8], the system named is BaF3. Briefly: cells. The settings on record: Mus musculus, BaF3, 72 h. The source holds these as a separate data set.
Description: Antiproliferative activity against mouse BAF3 cells harboring FLT3-ITD-D835V mutant measured after 72 hrs by MTT assay
The nature of data set [9]: Tmax in Sprague-Dawley rat at 5 mg/kg, po by LC-MS/MS analysis. Type of data set: ADME, organism-based. The note with it: in vivo.
Data set [10] is described as follows: Elimination half-life in Sprague-Dawley rat at 5 mg/kg, po by LC-MS/MS analysis. The note with it: in vivo, read-out: beta t1/2 (converted). The format is ADME, organism-based.
The nature of data set [11]: Plasma clearance in Sprague-Dawley rat at 5 mg/kg, po by LC-MS/MS analysis. Type of data set: ADME, organism-based.
Data set [12] in a line: Oral bioavailability in Sprague-Dawley rat at 5 mg/kg by LC-MS/MS analysis. The note with it: in vivo. The format is ADME, organism-based.
For data set [13], the system named is MOLM-13. Briefly: Potency index, ratio of quizartinib IC50 to test compound IC50 for human MOLM13 cells harboring FLT3-ITD mutant. The format is functional.

As to `CC(C)(C)c1cc(NC(=O)Nc2ccc(-c3cn(CCCN4CCOCC4)c4ncnc(N)c34)cc2)no1`, the IC50 in data set [1] is 9 nM; in the data set with RS4-11, over 1000 nM; in the data set on HL-60, over 1000 nM; in the data set on MV4-11 [4], 0.069 nM; with MOLM-13 [5], 0.193 nM; in the data set with BaF3 [6], 0.99 nM. For the same compound, the IC50 with BaF3 [7] is 32.1 nM; in the data set on BaF3 [8], 61.8 nM. The TGI entry with MV4-11 [2] and in the data set with MOLM-13 [3] was “inactive” throughout.

As for `CC(C)(C)c1cc(NC(=O)Nc2ccc(-c3c[nH]c4ncnc(N)c34)cc2)no1`, the IC50 in data set [1] is 6 nM; in the data set on RS4-11, over 1000 nM; in the data set on HL-60, over 1000 nM; in the data set with MV4-11 [4] it was 0.043 nM; in the data set with MOLM-13 [5], under 0.001 nM; with BaF3 [6], 0.16 nM. The IC50 with BaF3 [7] was 2.35 nM; in the data set with BaF3 [8] it was 4.83 nM. Also, the time to peak (Tmax) in data set [9] amounted to 0.28 h. For the same compound, the half-life in data set [10] was 6.22 h. The CL/F in [11] was 14.8 mL/min/kg. The compound also displayed a bioavailability in [12] of 22.5%. The TGI entry with MV4-11 [2] and in the data set on MOLM-13 [3] was “inactive” in each case. Moreover, the “Ratio IC50” value in the data set with MOLM-13 [13] is over 100.

Regarding `CC(C)(C)c1cc(NC(=O)Nc2ccc(-c3cn(CCN4CCOCC4)c4ncnc(N)c34)cc2)no1`, the IC50 in data set [1] is 20 nM; with RS4-11, over 1000 nM; in the data set with HL-60, over 1000 nM; with MV4-11 [4], 0.329 nM; with MOLM-13 [5] it was 1.15 nM; in the data set on BaF3 [6], 1.07 nM. For the same compound, the concentration for half-maximal inhibition (IC50) in the data set on BaF3 [7] stood at 34.8 nM; with BaF3 [8], 52.4 nM. Also, the TGI result with MV4-11 [2] and in the data set on MOLM-13 [3] was “inactive” in each case.
